Legend:
[1] = test system: arteria basilaris vessel rings; experiment: Inhibition of K^+ depolarization contraction of isolated vessel rings (a. basilaris) in the organ bath; assay type: cell-based; conditions: rabbit a. basilaris rings, mean diameter 0.5-1.0 mm, potassium depolarization in Tyrode's solution, read-out: Concentration (IC50) effecting a semimaximal inhibition of the K^+ -depolarization contraction of vessel rings, a. basilaris
From the text: (§1) Of rabbits (vessel ring segments of arteria basilaris and a. coronaria are mounted in an organ bath in a way to allow the measurement of isometric contractions. Contractile activity is elicited by a potassium depolarization in Tyrode's solution. This experimental set-up is a well-known standard model for the identification of substances blocking the calcium channels opened during the potassium depolarization (Fleckenstein, Calcium Antagonism in Heart and Smooth Muscle, J. Wiley & Sons, 1983).
(§2) Concentrations (IC50, mol/l) of compounds effecting a semimaxi-
(§3) mal inhibition of the K^+ -depolarization contraction of vessel
(§4) in the organ bath. A. bas. = arteria basilaris, a cor. = arteria
(§5) coronaria of the rabbit; mean diameter 0.5-1.0 mm.

[2] = test system: arteria coronaria vessel rings; experiment: Inhibition of K^+ depolarization contraction of isolated vessel rings (a. coronaria) in the organ bath; assay type: cell-based; conditions: rabbit a. coronaria rings, mean diameter 0.5-1.0 mm, potassium depolarization in Tyrode's solution, read-out: Concentration (IC50) effecting a semimaximal inhibition of the K^+ -depolarization contraction of vessel rings, a. coronaria
From the text: as §1, §2, §3, §4, §5

Row | SMILES | IC50 [1] | IC50 [2]
1 | COC(=O)C1=C(C)Nc2ncnc(OC(C)C)c2C1c1ccccc1C(F)(F)F (racemic) [Example 1c, (±)-5,8-Dihydro-4-isopropoxy-7-methyl-5-(2-trifluromethylphenyl)pyrido[2,3-d]pyrimidine-6-carboxylic acid methyl ester] | 40 nM | 45 nM
2 | CCOC(=O)C1=C(N)Nc2ncnc(OC(C)C)c2C1c1ccccc1OC (racemic) [Example 1e, (±)-7-Amino-5,8-dihydro-4-isopropoxy-5-(2-methoxyphenyl)pyrido[2,3-d]pyrimidine-6-carboxylic acid ethyl ester] | 2800 nM | 73 nM
3 | CCOC(=O)C1=C(C)Nc2ncnc(OC(C)C)c2C1c1ccccc1C(F)(F)F (racemic) [Example 1f, (±)-5,8-Dihydro-4-isopropoxy-7-methyl-5-(2-trifluoromethylphenyl)pyrido[2,3-d]pyrimidine-6-carboxylic acid ethyl ester] | 38 nM | 34 nM
4 | COC(=O)C1=C(C)Nc2ncnc(OC(C)C)c2C1c1cccc([N+](=O)[O-])c1 (racemic) [Example 1g, (±)-5,8-Dihydro-4-isopropoxy-7-methyl-5-(3-nitrophenyl)pyrido[2,3-d]pyrimidine-6-carboxylic acid methyl ester] | 28 nM | 230 nM
5 | COc1ncnc2c1C(c1cccc([N+](=O)[O-])c1)C(C(=O)OC(C)C)=C(C)N2 (racemic) [Example 2, (±)-5,8-Dihydro-4-methoxy-7-methyl-5-(3-nitrophenyl)pyrido[2,3-d]pyrimidine-6-carboxylic acid isopropyl ester] | 2.5 nM | 140 nM

The remaining molecules from weak to strong by IC50 [1], led by results:

Row | IC50 [1] | IC50 [2] | SMILES
6 | 39 nM | 34 nM | COCCOC(=O)C1=C(C)Nc2ncnc(OC(C)C)c2C1c1cccc([N+](=O)[O-])c1 (racemic) [Example 1b, (±)-5,8-Dihydro-4-isopropoxy-7-methyl-5-(3-nitrophenyl)pyrido[2,3-d]pyrimidine-6-carboxylic acid(2-methoxy)ethyl ester]
7 | 33 nM | 160 nM | CC1=C(C(=O)OC(C)C)C(c2cccc([N+](=O)[O-])c2)c2c(ncnc2OC(C)C)N1 (racemic) [Example 1d, (±)-5,8)Dihydro-4-isopropoxy-7-methyl-5-(3-nitrophenyl)pyrido[2,3-d]pyrimidine-6-carboxylic acid isopropyl ester]
